# Starred links: 1 amine or outer side, 2 acyl side, 3 side chain; linkers in the order of their positions; H or OH if unused. Non-standard residues stand in square brackets, D forms with d. Residues, ends and D or L forms follow the SMILES beside them. Groups on a side chain read outwards from the residue. *: point of attachment. C18 diacid = O=C(O)CCCCCCCCCCCCCCCCC(=O)*; αMePhe(2-F) = C[C@](N)(Cc1ccccc1F)C(=O)O; γGlu = O=C(O)[C@H](CCC(=O)[*:2])N[*:1]; αMeF = C[C@](N)(Cc1ccccc1)C(=O)O; 4Pal = N[C@@H](Cc1ccncc1)C(=O)O; αMeL = CC(C)C[C@](C)(N)C(=O)O; αMeS = C[C@](N)(CO)C(=O)O; Orn = NCCC[C@H](N)C(=O)O; AEEA = NCCOCCOCC(=O)O; Aib = CC(C)(N)C(=O)O
# Columns and labels:
# Format in all cases: cell-based
# human GcgR = human GcgR (Homo sapiens, UniProt P47871); test: Functional cAMP activity in the presence of 1% HSA; settings: read-out: cAMP Rel EC50, hGcgR
# human GcgR, sequence (P47871 26-477): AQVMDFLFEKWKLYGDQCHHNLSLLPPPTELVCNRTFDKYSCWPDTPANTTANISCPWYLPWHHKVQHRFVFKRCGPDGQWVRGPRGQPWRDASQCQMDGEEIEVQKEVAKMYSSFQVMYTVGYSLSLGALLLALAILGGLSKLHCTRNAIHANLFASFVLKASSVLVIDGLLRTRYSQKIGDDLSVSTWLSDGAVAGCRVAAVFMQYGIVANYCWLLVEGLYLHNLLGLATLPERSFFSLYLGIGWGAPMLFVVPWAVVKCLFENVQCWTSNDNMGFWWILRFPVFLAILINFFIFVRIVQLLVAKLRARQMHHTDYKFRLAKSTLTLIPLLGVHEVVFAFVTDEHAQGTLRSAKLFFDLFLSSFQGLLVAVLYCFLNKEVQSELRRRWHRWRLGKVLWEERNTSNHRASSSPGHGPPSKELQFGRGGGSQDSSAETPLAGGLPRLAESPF
# hGLP-1R [1] = target: T1, hGLP-1R (Homo sapiens, UniProt P43220); test: Functional cAMP activity in the presence of 1% HSA; settings: read-out: cAMP Rel EC50, hGLP-1R
# T1 sequence (P43220 24-463): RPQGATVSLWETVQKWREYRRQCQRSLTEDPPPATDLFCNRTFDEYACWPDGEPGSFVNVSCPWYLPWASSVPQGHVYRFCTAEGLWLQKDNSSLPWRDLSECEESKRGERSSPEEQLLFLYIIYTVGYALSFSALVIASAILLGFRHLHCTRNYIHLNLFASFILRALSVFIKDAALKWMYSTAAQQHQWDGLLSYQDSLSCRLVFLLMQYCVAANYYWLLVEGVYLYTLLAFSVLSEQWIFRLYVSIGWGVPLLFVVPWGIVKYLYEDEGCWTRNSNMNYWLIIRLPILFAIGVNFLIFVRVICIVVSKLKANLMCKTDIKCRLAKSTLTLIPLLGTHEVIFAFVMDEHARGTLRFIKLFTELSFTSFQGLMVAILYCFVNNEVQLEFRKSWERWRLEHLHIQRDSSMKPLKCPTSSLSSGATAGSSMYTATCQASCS
# hGIPR [2] = target: T2, hGIPR (Homo sapiens, UniProt P48546); test: Functional cAMP activation in the presence of 0.1% casein (no HSA); settings: read-out: Relative cAMP EC50, hGIPR;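 also: intracellular cAMP rise after 30 min at 37 °C read by HTRF against a standard curve, scaled between buffer alone (0%) and top control ligand concentration (100%), four-parameter fit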
# T2 sequence (P48546 22-466): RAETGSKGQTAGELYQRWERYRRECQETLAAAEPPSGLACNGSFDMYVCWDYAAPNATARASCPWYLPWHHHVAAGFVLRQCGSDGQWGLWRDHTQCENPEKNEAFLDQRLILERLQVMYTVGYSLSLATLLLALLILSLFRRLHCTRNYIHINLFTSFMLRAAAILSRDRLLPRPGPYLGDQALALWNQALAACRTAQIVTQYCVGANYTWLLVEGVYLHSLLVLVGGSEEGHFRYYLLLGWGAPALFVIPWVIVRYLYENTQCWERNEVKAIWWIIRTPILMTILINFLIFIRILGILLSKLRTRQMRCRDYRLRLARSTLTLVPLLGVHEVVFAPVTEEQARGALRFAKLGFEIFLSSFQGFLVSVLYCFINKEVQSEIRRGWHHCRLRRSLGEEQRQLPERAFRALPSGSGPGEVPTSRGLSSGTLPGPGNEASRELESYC
# hGIPR [3] = target: T2, hGIPR; test: Functional cAMP activity in the presence of 1% HSA; settings: read-out: cAMP Rel EC50, hGIPR
# hGLP-1R [4] = target: T1, hGLP-1R; test: Functional cAMP activation in the presence of 0.1% casein (no HSA); settings: read-out: Relative cAMP EC50, hGLP-1R;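 as to Relative cAMP EC50, hGLP-1R: intracellular cAMP rise after 30 min at 37 °C read by HTRF, normalized between buffer only (0%) and maximal control ligand (100%), four-parameter variable-slope fit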;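 as to Relative cAMP EC50, hGcgR: intracellular cAMP rise after 30 min at 37 °C, read by HTRF against a cAMP standard curve, scaled from buffer only (0%) to maximal control ligand response (100%)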
# hGcgR = hGcgR (Homo sapiens, UniProt P47871); test: as above; settings: read-out: Relative cAMP EC50, hGcgR;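 also: intracellular cAMP rise after 30 min at 37 °C, read by HTRF against a cAMP standard curve, scaled from buffer only (0%) to maximal control ligand response (100%)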
# hGcgR, sequence (P47871 26-477): as the sequence (P47871 26-477) above
SMILES,EC50 (human GcgR) [nM],EC50 (hGLP-1R [1]) [nM],EC50 (hGIPR [2]) [nM],EC50 (hGIPR [3]) [nM],EC50 (hGLP-1R [4]) [nM],EC50 (hGcgR) [nM]
CC[C@H](C)[C@H](NC(=O)[C@H](Cc1ccccc1)NC(=O)[C@H](C)NC(=O)C(C)(C)NC(=O)[C@H](CCC(N)=O)NC(=O)[C@H](C)NC(=O)[C@H](CCCCNC(=O)COCCOCCNC(=O)CC[C@H](NC(=O)CCCCCCCCCCCCCCCCC(=O)O)C(=O)O)NC(=O)[C@H](CCCN)NC(=O)[C@H](CC(=O)O)NC(=O)[C@H](CC(C)C)NC(=O)[C@](C)(CC(C)C)NC(=O)[C@@H](NC(=O)[C@](C)(CO)NC(=O)[C@H](Cc1ccc(O)cc1)NC(=O)[C@H](CC(=O)O)NC(=O)[C@H](CO)NC(=O)[C@@H](NC(=O)[C@](C)(Cc1ccccc1)NC(=O)[C@@H](NC(=O)CNC(=O)[C@H](CCC(N)=O)NC(=O)C(C)(C)NC(=O)[C@@H](N)Cc1ccc(O)cc1)[C@@H](C)O)[C@@H](C)O)[C@@H](C)CC)C(=O)N[C@H](CCC(=O)O)C(=O)N[C@@H](Cc1ccc(O)cc1)C(=O)N[C@@H](CC(C)C)C(=O)N[C@@H](CC(C)C)C(=O)N[C@@H](CCC(=O)O)C(=O)NCC(=O)NCC(=O)N1CCC[C@H]1C(=O)N[C@@H](CO)C(=O)N[C@@H](CO)C(=O)NCC(=O)N[C@@H](CCC(=O)O)C(=O)N1CCC[C@H]1C(=O)N1CCC[C@H]1C(=O)N1CCC[C@H]1C(=O)N[C@@H](CCC(=O)O)C(N)=O [Example 420] (H-Y[Aib]QGT[αMeF]TSDY[αMeS]I[αMeL]LD[Orn]K([AEEA-γGlu-C18 diacid])AQ[Aib]AFI[dE]YLLEGGPSSGEPPPE-NH2),433,31.3,0.0131,2.61,0.205,2.49
CC[C@H](C)[C@H](NC(=O)[C@H](Cc1ccccc1)NC(=O)[C@H](C)NC(=O)C(C)(C)NC(=O)[C@H](CCC(N)=O)NC(=O)[C@H](C)NC(=O)[C@H](CCCCNC(=O)COCCOCCNC(=O)CC[C@H](NC(=O)CCCCCCCCCCCCCCCCC(=O)O)C(=O)O)NC(=O)[C@H](CCCCN)NC(=O)[C@H](CC(=O)O)NC(=O)[C@H](CC(C)C)NC(=O)[C@](C)(CC(C)C)NC(=O)[C@@H](NC(=O)[C@H](CO)NC(=O)[C@H](Cc1ccc(O)cc1)NC(=O)[C@H](CC(=O)O)NC(=O)[C@H](CO)NC(=O)[C@@H](NC(=O)[C@](C)(Cc1ccccc1F)NC(=O)[C@@H](NC(=O)CNC(=O)[C@H](CCC(N)=O)NC(=O)C(C)(C)NC(=O)[C@@H](N)Cc1ccc(O)cc1)[C@@H](C)O)[C@@H](C)O)[C@@H](C)CC)C(=O)N[C@@H](CCC(=O)O)C(=O)N[C@@H](Cc1ccc(O)cc1)C(=O)N[C@@H](CC(C)C)C(=O)N[C@@H](CCC(=O)O)C(=O)N[C@@H](CCC(=O)O)C(=O)NCC(=O)NCC(=O)N1CCC[C@H]1C(=O)N[C@@H](CO)C(=O)N[C@@H](CO)C(=O)NCC(=O)N[C@@H](C)C(=O)N1CCC[C@H]1C(=O)N1CCC[C@H]1C(=O)N1CCC[C@H]1C(=O)N[C@@H](CO)C(N)=O [Example 421] (H-Y[Aib]QGT[αMePhe(2-F)]TSDYSI[αMeL]LDKK([AEEA-γGlu-C18 diacid])AQ[Aib]AFIEYLEEGGPSSGAPPPS-NH2),468,31.9,0.0132,2.98,0.21,3.25
CC[C@H](C)[C@H](NC(=O)[C@H](Cc1ccccc1)NC(=O)[C@H](C)NC(=O)C(C)(C)NC(=O)[C@H](CCC(N)=O)NC(=O)[C@H](C)NC(=O)[C@H](CCCCNC(=O)COCCOCCNC(=O)CC[C@H](NC(=O)CCCCCCCCCCCCCCCCC(=O)O)C(=O)O)NC(=O)[C@H](CCCCN)NC(=O)[C@H](CC(=O)O)NC(=O)[C@H](CC(C)C)NC(=O)[C@](C)(CC(C)C)NC(=O)[C@@H](NC(=O)[C@H](CO)NC(=O)[C@H](Cc1ccncc1)NC(=O)[C@H](CC(=O)O)NC(=O)[C@H](CO)NC(=O)[C@@H](NC(=O)[C@](C)(Cc1ccccc1F)NC(=O)[C@@H](NC(=O)CNC(=O)[C@H](CCC(N)=O)NC(=O)C(C)(C)NC(=O)[C@@H](N)Cc1ccc(O)cc1)[C@@H](C)O)[C@@H](C)O)[C@@H](C)CC)C(=O)N[C@@H](CCC(=O)O)C(=O)N[C@@H](Cc1ccc(O)cc1)C(=O)N[C@@H](CC(C)C)C(=O)N[C@@H](CCC(=O)O)C(=O)N[C@@H](CCC(=O)O)C(=O)NCC(=O)NCC(=O)N1CCC[C@H]1C(=O)N[C@@H](CO)C(=O)N[C@@H](CO)C(=O)NCC(=O)N[C@@H](C)C(=O)N1CCC[C@H]1C(=O)N1CCC[C@H]1C(=O)N1CCC[C@H]1C(=O)N[C@@H](CO)C(N)=O [Example 422] (H-Y[Aib]QGT[αMePhe(2-F)]TSD[4Pal]SI[αMeL]LDKK([AEEA-γGlu-C18 diacid])AQ[Aib]AFIEYLEEGGPSSGAPPPS-NH2),493,27.1,0.0216,4.4,0.252,14.5
CC[C@H](C)[C@H](NC(=O)[C@H](Cc1ccccc1)NC(=O)[C@H](C)NC(=O)C(C)(C)NC(=O)[C@H](CCC(N)=O)NC(=O)[C@H](C)NC(=O)[C@H](CCCCNC(=O)COCCOCCNC(=O)CC[C@H](NC(=O)CCCCCCCCCCCCCCCCC(=O)O)C(=O)O)NC(=O)[C@H](CCCCN)NC(=O)[C@H](CC(=O)O)NC(=O)[C@H](CC(C)C)NC(=O)[C@](C)(CC(C)C)NC(=O)[C@@H](NC(=O)[C@H](CO)NC(=O)[C@H](Cc1ccc(O)cc1)NC(=O)[C@H](CC(=O)O)NC(=O)[C@H](CO)NC(=O)[C@@H](NC(=O)[C@](C)(Cc1ccccc1F)NC(=O)[C@@H](NC(=O)CNC(=O)[C@H](CCC(N)=O)NC(=O)C(C)(C)NC(=O)[C@@H](N)Cc1ccc(O)cc1)[C@@H](C)O)[C@@H](C)O)[C@@H](C)CC)C(=O)N[C@@H](CCC(=O)O)C(=O)N[C@@H](Cc1ccc(O)cc1)C(=O)N[C@@H](CC(C)C)C(=O)N[C@@H](CCC(=O)O)C(=O)N[C@@H](CCC(=O)O)C(=O)NCC(=O)NCC(=O)N1CCC[C@H]1C(=O)N[C@@H](CO)C(=O)N[C@@H](CO)C(=O)NCC(=O)N[C@@H](C)C(=O)N1CCC[C@H]1C(=O)N[C@@H](CCC(=O)O)C(=O)N1CCC[C@H]1C(=O)N[C@@H](CO)C(N)=O [Example 423] (H-Y[Aib]QGT[αMePhe(2-F)]TSDYSI[αMeL]LDKK([AEEA-γGlu-C18 diacid])AQ[Aib]AFIEYLEEGGPSSGAPEPS-NH2),319,28.7,0.0114,3.07,0.194,1.92
CC[C@H](C)[C@H](NC(=O)[C@H](Cc1ccccc1)NC(=O)[C@H](C)NC(=O)C(C)(C)NC(=O)[C@H](CCC(N)=O)NC(=O)[C@H](C)NC(=O)[C@H](CCCCNC(=O)COCCOCCNC(=O)CC[C@H](NC(=O)CCCCCCCCCCCCCCCCC(=O)O)C(=O)O)NC(=O)[C@H](CCCCN)NC(=O)[C@H](CC(=O)O)NC(=O)[C@H](CC(C)C)NC(=O)[C@](C)(CC(C)C)NC(=O)[C@@H](NC(=O)[C@H](CO)NC(=O)[C@H](Cc1ccc(O)cc1)NC(=O)[C@H](CC(=O)O)NC(=O)[C@H](CO)NC(=O)[C@@H](NC(=O)[C@](C)(Cc1ccccc1F)NC(=O)[C@@H](NC(=O)CNC(=O)[C@H](CCC(N)=O)NC(=O)C(C)(C)NC(=O)[C@@H](N)Cc1ccc(O)cc1)[C@@H](C)O)[C@@H](C)O)[C@@H](C)CC)C(=O)N[C@@H](CCC(=O)O)C(=O)N[C@@H](Cc1ccc(O)cc1)C(=O)N[C@@H](CC(C)C)C(=O)N[C@@H](CCC(=O)O)C(=O)N[C@@H](CCC(=O)O)C(=O)NCC(=O)NCC(=O)N1CCC[C@H]1C(=O)N[C@@H](CO)C(=O)N[C@@H](CO)C(=O)NCC(=O)N[C@@H](C)C(=O)N1CCC[C@H]1C(=O)N1CCC[C@H]1C(=O)N1CCC[C@H]1C(=O)N[C@@H](CO)C(=O)N[C@@H](CCC(=O)O)C(N)=O [Example 424] (H-Y[Aib]QGT[αMePhe(2-F)]TSDYSI[αMeL]LDKK([AEEA-γGlu-C18 diacid])AQ[Aib]AFIEYLEEGGPSSGAPPPSE-NH2),443,29.5,0.0154,3.21,0.318,3.12
CC[C@H](C)[C@H](NC(=O)[C@H](Cc1ccccc1)NC(=O)[C@H](C)NC(=O)C(C)(C)NC(=O)[C@H](CCC(N)=O)NC(=O)[C@H](C)NC(=O)[C@H](CCCCNC(=O)COCCOCCNC(=O)CC[C@H](NC(=O)CCCCCCCCCCCCCCCCC(=O)O)C(=O)O)NC(=O)[C@H](CCCCN)NC(=O)[C@H](CC(=O)O)NC(=O)[C@H](CC(C)C)NC(=O)[C@H](CC(C)C)NC(=O)[C@@H](NC(=O)[C@H](CO)NC(=O)[C@H](Cc1ccc(O)cc1)NC(=O)[C@H](CC(=O)O)NC(=O)[C@H](CO)NC(=O)[C@@H](NC(=O)[C@](C)(Cc1ccccc1F)NC(=O)[C@@H](NC(=O)CNC(=O)[C@H](CCC(N)=O)NC(=O)C(C)(C)NC(=O)[C@@H](N)Cc1c[nH]cn1)[C@@H](C)O)[C@@H](C)O)[C@@H](C)CC)C(=O)N[C@@H](CCC(=O)O)C(=O)N[C@@H](Cc1ccc(O)cc1)C(=O)N[C@@H](CC(C)C)C(=O)N[C@@H](CCC(=O)O)C(=O)N[C@@H](CCC(=O)O)C(=O)NCC(=O)NCC(=O)N1CCC[C@H]1C(=O)N[C@@H](CO)C(=O)N[C@@H](CO)C(=O)NCC(=O)N[C@@H](C)C(=O)N1CCC[C@H]1C(=O)N1CCC[C@H]1C(=O)N1CCC[C@H]1C(=O)N[C@@H](CO)C(N)=O [Example 425] (H-H[Aib]QGT[αMePhe(2-F)]TSDYSILLDKK([AEEA-γGlu-C18 diacid])AQ[Aib]AFIEYLEEGGPSSGAPPPS-NH2; N-terminus assumed),1150,20.3,0.0997,46.9,0.15,5.49

# — patent US20240270821A1, “GIP/GLP1/GCG TRI-RECEPTOR AGONISTS AND USES THEREOF” (priority 2023, published 2024)
